This is an account of results in patent US20250011299A1, “PYRIDAZINYL AMINO DERIVATIVES AS ALK5 INHIBITORS” (CHIESI FARMACEUTICI S.P.A., priority 2021, published 2025).

A value given as a limit tells only on which side of the number the result lay.

This assay concerns the target T1, human ALK5 (Homo sapiens, UniProt P36897).
T1 construct: human ALK5 (recombinant TGF β1 N-term GST-tagged, 80-end); GST (N); purchased
T1 sequence (P36897 80-503 limits assumed): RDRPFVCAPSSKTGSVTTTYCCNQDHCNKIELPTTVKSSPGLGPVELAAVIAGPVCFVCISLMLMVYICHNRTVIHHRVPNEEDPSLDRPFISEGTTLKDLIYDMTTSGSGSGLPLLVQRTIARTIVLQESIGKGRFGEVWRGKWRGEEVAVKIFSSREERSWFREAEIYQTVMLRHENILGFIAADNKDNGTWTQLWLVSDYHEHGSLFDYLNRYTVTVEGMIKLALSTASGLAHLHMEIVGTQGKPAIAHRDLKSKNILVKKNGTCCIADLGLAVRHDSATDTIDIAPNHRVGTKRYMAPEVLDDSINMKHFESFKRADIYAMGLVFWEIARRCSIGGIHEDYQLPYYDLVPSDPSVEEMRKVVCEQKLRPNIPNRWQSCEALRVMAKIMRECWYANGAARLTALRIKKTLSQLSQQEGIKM
Briefly: ADP-GLO Kinases assay of ALK5 enzymatic activity. Format: biochemical. Particulars: purified recombinant human ALK5, TGFβ1 peptide substrate, pIC50 converted to pKi by Cheng-Prusoff, high ATP protocol (15 μM) for very potent compounds, 25° C. The essentials: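 Purified ALK5 preincubated 15 min with compound, then reacted with substrate and ATP; ADP formed read by ADP-Glo luminescence after 120 min or 60 min reaction, all steps at 25° C. 11-point concentration-response; pIC50 converted to pKi via Cheng-Prusoff.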
(In general: ADP-Glo first removes unused ATP, then detects ADP through luciferase.)

Usually Ki stands for the dissociation constant of the complex between target and ligand, obtained from inhibition or displacement. Regarding `CN1CCCN(CC(=O)Nc2cc(Nc3cc(-c4cc(Cl)ccc4F)nnc3OC3CCOC3)ccn2)CC1` (racemic) [Example 72, N-(4-{[6-(5-chloro-2-fluorophenyl)-3-(oxolan-3-yloxy)pyridazin-4-yl]amino}pyridin-2-yl)-2-(4-methyl-1,4-diazepan-1-yl)acetamide], the inhibitory constant (Ki) is ≤ 0.1 nM.
For `CN1CCN(CCC(=O)Nc2cc(Nc3cc(-c4cc(Cl)ccc4F)nnc3OCC(F)F)ccn2)CC1` [Example 52, N-(4-{[6-(5-chloro-2-fluorophenyl)-3-(2,2-difluoroethoxy)pyridazin-4-yl]amino}pyridin-2-yl)-3-(4-methylpiperazin-1-yl)propanamide] the value was 0.126 to 0.316 nM.
Consider `Cc1oc(=O)oc1CSc1nnc(-c2cc(Cl)ccc2F)cc1Nc1ccnc(NC(=O)CCN2CCN(C)CC2)c1` [Example 190, N-(4-{[6-(5-chloro-2-fluorophenyl)-3-{[(5-methyl-2-oxo-2H-1,3-dioxol-4-yl)methyl]sulfanyl}pyridazin-4-yl]amino}pyridin-2-yl)-3-(4-methylpiperazin-1-yl)propanamide], for which the inhibitory constant (Ki) was ≤ 0.1 nM.
For `CN1CCN(CCOc2ccc3c(Nc4cc(-c5cc(Cl)ccc5F)nnc4OCCO)ccnc3c2)CC1` [Example 2, 2-{[6-(5-chloro-2-fluorophenyl)-4-({7-[2-(4-methylpiperazin-1-yl)ethoxy]quinolin-4-yl}amino)pyridazin-3-yl]oxy}ethan-1-ol], the inhibition constant Ki was ≤ 0.1 nM.
For `CN1CCC(COC(=O)c2cccc(CSc3nnc(-c4cc(Cl)ccc4F)cc3Nc3ccnc4[nH]ccc34)c2)CC1` [Example 206, (1-methylpiperidin-4-yl)methyl 3-({[6-(5-chloro-2-fluorophenyl)-4-({1H-pyrrolo[2,3-b]pyridin-4-yl}amino)pyridazin-3-yl]sulfanyl}methyl)benzoate], the Ki is 0.126 to 0.316 nM.
For the molecule `COC(=O)NCCN1CCN(CCC(=O)Nc2cc(Nc3cc(-c4cc(Cl)ccc4F)nnc3SC)ccn2)CC1` [Example 21, methyl N-[2-(4-{2-[(4-{[6-(5-chloro-2-fluorophenyl)-3-(methylsulfanyl)pyridazin-4-yl]amino}pyridin-2-yl)carbamoyl]ethyl}piperazin-1-yl)ethyl]carbamate], the inhibition constant Ki was ≤ 0.1 nM.
Take `CN1CCN(CCC(=O)Nc2cc(Nc3cc(-c4cc(Cl)ccc4F)nnc3SCc3cccc(C(=O)O)c3)ccn2)CC1` [Example 196, 3-({[6-(5-chloro-2-fluorophenyl)-4-({2-[3-(4-methylpiperazin-1-yl)propanamido]pyridin-4-yl}amino)pyridazin-3-yl]sulfanyl}methyl)benzoic acid]: the Ki is 0.126 to 0.316 nM.
For the molecule `CN1CCN([C@H]2C[C@@H](C(=O)Nc3cc(Nc4cc(-c5cc(Cl)ccc5F)nnc4N(C)C)ccn3)C2)CC1` [Example 97, cis N-(4-{[6-(5-chloro-2-fluorophenyl)-3-(dimethylamino)pyridazin-4-yl]amino}pyridin-2-yl)-3-(4-methylpiperazin-1-yl)cyclobutane-1-carboxamide], the inhibition constant Ki is ≤ 0.1 nM.
The value for `C[S+]([O-])CCCOc1nnc(-c2cc(Cl)ccc2F)cc1Nc1ccnc(N)c1` (centres unmarked) [Example 57, N4-[6-(5-chloro-2-fluorophenyl)-3-(3-methanesulfinylpropoxy)pyridazin-4-yl]pyridine-2,4-diamine] was 0.398 to 3.16 nM.
On to `Cc1ccc(F)c(-c2cc(Nc3ccnc(NC(=O)CCN4CCN(C)CC4)c3)c(OCC(F)(F)F)nn2)n1` [Example 68, N-(4-{[6-(3-fluoro-6-methylpyridin-2-yl)-3-(2,2,2-trifluoroethoxy)pyridazin-4-yl]amino}pyridin-2-yl)-3-(4-methylpiperazin-1-yl)propanamide], for which the Ki is 0.126 to 0.316 nM.
`COc1nnc(-c2cc(Cl)ccc2F)cc1Nc1ccnc(N)c1` [Example 48, N4-[6-(5-chloro-2-fluorophenyl)-3-methoxypyridazin-4-yl]pyridine-2,4-diamine]: the Ki is 0.126 to 0.316 nM.
